Measured values as given in US20220089609A1, “SUBSTITUTED QUINAZOLINONE DERIVATIVES AND THEIR USE AS POSITIVE ALLOSTERIC MODULATORS OF MGLUR4” (DOMAIN THERAPEUTICS, priority 2018, published 2022).
Counter-ions that a name gives are not always drawn.

biological target: T1, human mGluR4 (hmGluR4) (Homo sapiens, UniProt Q14833); test: Calcium assay EC50 determination, positive allosteric modulator activity on hmGluR4 transiently over-expressed in HEK-293 cells; format: cell-based; conditions: PAM mode with EC20 glutamate; hmGluR4 in HEK-293 cells; intracellular calcium (Fluo4AM); read-out: mGluR4 positive allosteric modulator activity, half maximal effective concentration (EC50)
T1 construct: expressed in transfected cells; host or cells: HEK-293 cells, transient co-transfection by electroporation
Experimental: Compounds are tested successively for their agonist and positive allosteric modulator activities on human mGluR4 (hmGluR4) transiently over-expressed in HEK-293 cells. Compounds exert agonist activity if, by themselves in absence of glutamate, they are able to activate hmGluR4; and they exert positive allosteric modulator activity if they increase the action of glutamate.
HEK-293 cells are maintained in Modified Eagle's Medium supplemented with 10% Foetal Calf Serum, 1% Penicillin/Streptomycin and 1% non-essential amino acids at 37° C./5% CO2.
Cells are co-transfected by electroporation with four DNA plasmids encoding hmGluR4, a chimeric G protein allowing redirection of the activation signal to intracellular calcium pathway, and glutamate transporters to decrease extracellular glutamate concentration so as to limit receptor desensitization. After transfection, cells are cultured for 24 h at 37° C./5% CO2.
Calcium Assay EC50 determination
Receptor activity is detected by changes in intracellular calcium measured using the fluorescent Ca^2+ sensitive dye, Fluo4AM (Molecular Probes).
On the day of the assay, culture medium is aspirated and replaced during 3 hours by medium without serum supplemented with 1% Glutamax, 1% Penicillin/Streptomycin and 1% non-essential amino acids. Then, cells are washed with freshly prepared buffer B (HBSS 1× (PAA), Hepes 20 mM, MgSO4-7H2O 1 mM, Na2CO3 3.3 mM, CaCl2-2H2O 1.3 mM, 0.1% BSA, Probenecid 2.5 mM) and loaded at 37° C. in 5% CO2 for 1.5 hours with buffer B containing 1 μM Fluo4AM, 0.1 mg/mL Pluronic Acid, 7 μg/mL Glutamate Pyruvate Transaminase and 2 mM sodium pyruvate. Afterwards cells are washed twice with buffer B. Then cells are detached using StemPro Accutase (Fisher Scientific), resuspended in buffer B and seeded in 384 well plate at a density of 30,000 cells per well. Addition of compounds and intracellular Ca^2+ measurements (excitation 485 nm, emission 525 nm) are performed by the fluorescence microplate reader FLIP^Tetra (Molecular Devices).
Agonist and positive allosteric modulator activities of compounds are consecutively evaluated on the same cell plate. Agonist activity is first tested during 10 minutes with the addition of compound alone on the cells. Then, cells are stimulated by an EC20 glutamate concentration and fluorescence is recorded for additional 3 minutes. EC20 glutamate concentration is the concentration giving 20% of the maximal glutamate response. Agonist or positive allosteric modulator activity(ies) are evaluated in comparison to basal signals evoked by buffer B or EC20 glutamate alone, respectively.

T1 sequence (Q14833 33-912): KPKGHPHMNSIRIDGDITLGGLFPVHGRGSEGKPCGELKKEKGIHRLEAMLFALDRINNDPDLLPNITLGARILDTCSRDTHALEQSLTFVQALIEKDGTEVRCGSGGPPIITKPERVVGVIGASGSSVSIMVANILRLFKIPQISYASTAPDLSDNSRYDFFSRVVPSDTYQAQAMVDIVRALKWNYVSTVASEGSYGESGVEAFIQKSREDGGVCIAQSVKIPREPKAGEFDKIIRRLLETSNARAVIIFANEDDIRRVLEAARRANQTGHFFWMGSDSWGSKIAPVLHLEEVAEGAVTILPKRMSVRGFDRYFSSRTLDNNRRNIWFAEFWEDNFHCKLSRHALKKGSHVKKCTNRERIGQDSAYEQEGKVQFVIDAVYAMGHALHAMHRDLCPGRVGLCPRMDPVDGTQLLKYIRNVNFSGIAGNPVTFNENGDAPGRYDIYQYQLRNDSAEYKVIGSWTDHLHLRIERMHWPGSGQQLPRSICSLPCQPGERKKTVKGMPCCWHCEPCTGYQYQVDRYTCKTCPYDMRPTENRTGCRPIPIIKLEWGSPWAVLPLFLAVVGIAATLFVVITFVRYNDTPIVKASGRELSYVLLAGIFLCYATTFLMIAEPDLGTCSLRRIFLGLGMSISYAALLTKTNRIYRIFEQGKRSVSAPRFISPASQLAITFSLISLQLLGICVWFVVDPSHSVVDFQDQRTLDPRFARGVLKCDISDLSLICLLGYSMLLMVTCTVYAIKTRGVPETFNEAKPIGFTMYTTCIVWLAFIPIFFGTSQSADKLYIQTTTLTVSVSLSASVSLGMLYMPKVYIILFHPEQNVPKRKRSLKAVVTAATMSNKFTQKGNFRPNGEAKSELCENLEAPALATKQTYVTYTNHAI

Row | Compound | EC50 [nM]
1 | Cc1cc(OCCC2CCOC2)cc2c(=O)[nH]c(-c3cc4ccsc4cn3)nc12 (centres unmarked) [Compound 78, 8-Methyl-6-[2-(tetrahydro-furan-3-yl)-ethoxy]-2-thieno[2,3-c]pyridin-5-yl-3H-quinazolin-4-one] | ≤ 100
2 | Cc1cc(OCCC2CCOCC2)cc2c(=O)[nH]c(-c3cc4ccsc4cn3)nc12 [Compound 79, 8-Methyl-6-[2-(tetrahydro-pyran-4-yl)-ethoxy]-2-thieno[2,3-c]pyridin-5-yl-3H-quinazolin-4-one] | 100 to 1000
3 | Cc1cc(OCC2CCOC2)cc2c(=O)[nH]c(-c3cc4ccsc4cn3)nc12 (centres unmarked) [Compound 80, 8-Methyl-6-(tetrahydro-furan-3-ylmethoxy)-2-thieno[2,3-c]pyridin-5-yl-3H-quinazolin-4-one] | ≤ 100
4 | Cc1cc(OC[C@@H]2CCOC2)cc2c(=O)[nH]c(-c3cc4ccsc4cn3)nc12 [Compound 80-R, R-8-Methyl-6-(tetrahydro-furan-3-ylmethoxy)-2-thieno[2,3-c]pyridin-5-yl-3H-quinazolin-4-one] | ≤ 100
5 | Cc1cc(OC[C@H]2CCOC2)cc2c(=O)[nH]c(-c3cc4ccsc4cn3)nc12 [Compound 80-S, S-8-Methyl-6-(tetrahydro-furan-3-ylmethoxy)-2-thieno[2,3-c]pyridin-5-yl-3H-quinazolin-4-one] | ≤ 100
6 | CCC(=O)N1CC[C@H](Oc2cc(C)c3nc(-c4cc5ccsc5cn4)[nH]c(=O)c3c2)C1 [Compound 82-S, S-8-Methyl-6-(1-propionyl-pyrrolidin-3-yloxy)-2-thieno[2,3-c]pyridin-5-yl-3H-quinazolin-4-one] | ≤ 100
7 | Cc1cc(O[C@@H]2CCN(C3COC3)C2)cc2c(=O)[nH]c(-c3cc4ccsc4cn3)nc12 [Compound 83-R, R-8-Methyl-6-(1-oxetan-3-yl-pyrrolidin-3-yloxy)-2-thieno[2,3-c]pyridin-5-yl-3H-quinazolin-4-one] | 100 to 1000
8 | Cc1cc(O[C@H]2CCN(C3COC3)C2)cc2c(=O)[nH]c(-c3cc4ccsc4cn3)nc12 [Compound 83-S, S-8-Methyl-6-(1-oxetan-3-yl-pyrrolidin-3-yloxy)-2-thieno[2,3-c]pyridin-5-yl-3H-quinazolin-4-one] | ≤ 100
9 | Cc1cc(OCCN2CCC3(CC2)COC3)cc2c(=O)[nH]c(-c3cc4ccsc4cn3)nc12 [Compound 84, 8-Methyl-6-[2-(2-oxa-7-aza-spiro[3.5]non-7-yl)-ethoxy]-2-thieno[2,3-c]pyridin-5-yl-3H-quinazolin-4-one] | 100 to 1000
10 | Cc1cc(OCC2CCN(C3COC3)CC2)cc2c(=O)[nH]c(-c3cc4ccsc4cn3)nc12 [Compound 86, 8-Methyl-6-(1-oxetan-3-yl-piperidin-4-ylmethoxy)-2-thieno[2,3-c]pyridin-5-yl-3H-quinazolin-4-one] | ≤ 100
11 | CCC(=O)N1CCC(COc2cc(C)c3nc(-c4cc5ccsc5cn4)[nH]c(=O)c3c2)CC1 [Compound 87, 8-Methyl-6-(1-propionyl-piperidin-4-ylmethoxy)-2-thieno[2,3-c]pyridin-5-yl-3H-quinazolin-4-one] | 100 to 1000
12 | Cc1cc(OCC2CCN(S(C)(=O)=O)CC2)cc2c(=O)[nH]c(-c3cc4ccsc4cn3)nc12 [Compound 88, 6-(1-Methanesulfonyl-piperidin-4-ylmethoxy)-8-methyl-2-thieno[2,3-c]pyridin-5-yl-3H-quinazolin-4-one] | ≤ 100
13 | Cc1cc(N2CCC3(CC2)COC3)cc2c(=O)[nH]c(-c3cc4ccsc4cn3)nc12 [Compound 89, 8-Methyl-6-(2-oxa-7-aza-spiro[3.5]non-7-yl)-2-thieno[2,3-c]pyridin-5-yl-3H-quinazolin-4-one] | ≤ 100
14 | Cc1cc(N2CC3(CCOC3)C2)cc2c(=O)[nH]c(-c3cc4ccsc4cn3)nc12 [Compound 90, 8-Methyl-6-(6-oxa-2-aza-spiro[3.4]oct-2-yl)-2-thieno[2,3-c]pyridin-5-yl-3H-quinazolin-4-one] | ≤ 100
15 | Cc1cc(N2CCC3(CCOCC3)CC2)cc2c(=O)[nH]c(-c3cc4ccsc4cn3)nc12 [Compound 91, 8-Methyl-6-(3-oxa-9-aza-spiro[5.5]undec-9-yl)-2-thieno[2,3-c]pyridin-5-yl-3H-quinazolin-4-one] | ≤ 100
16 | Cc1cc(N2CCC3(CCCOC3)C2)cc2c(=O)[nH]c(-c3cc4ccsc4cn3)nc12 (centres unmarked) [Compound 92, 8-Methyl-6-(7-oxa-2-aza-spiro[4.5]dec-2-yl)-2-thieno[2,3-c]pyridin-5-yl-3H-quinazolin-4-one] | ≤ 100
17 | Cc1cc(N2CCC3(CCOCC3)C2)cc2c(=O)[nH]c(-c3cc4ccsc4cn3)nc12 [Compound 93, 8-Methyl-6-(8-oxa-2-aza-spiro[4.5]dec-2-yl)-2-thieno[2,3-c]pyridin-5-yl-3H-quinazolin-4-one] | ≤ 100
18 | Cc1cc(NCC(C)(C)O)cc2c(=O)[nH]c(-c3cc4ccsc4cn3)nc12 [Compound 94, 6-(2-Hydroxy-2-methyl-propylamino)-8-methyl-2-thieno[2,3-c]pyridin-5-yl-3H-quinazolin-4-one] | 100 to 1000
19 | CC(=O)N1CCCC(CCOc2cc(C)c3nc(-c4cc5ccsc5cn4)[nH]c(=O)c3c2)C1 (centres unmarked) [Compound 96, 6-[2-(1-Acetyl-piperidin-3-yl)-ethoxy]-8-methyl-2-thieno[2,3-c]pyridin-5-yl-3H-quinazolin-4-one] | ≤ 100
20 | CC(=O)N1CCN(CCOc2cc(C)c3nc(-c4cc5ccsc5cn4)[nH]c(=O)c3c2)CC1 [Compound 97, 6-[2-(4-acetyl-piperazin-1-yl)-ethoxy]-8-methyl-2-thieno[2,3-c]pyridin-5-yl-3H-quinazolin-4-one hydrochloride] | 100 to 1000
21 | Cc1cc(CCCN2CCOCC2)cc2c(=O)[nH]c(-c3cc4ccsc4cn3)nc12 [Compound 99, 8-Methyl-6-(3-morpholin-4-yl-propyl)-2-thieno[2,3-c]pyridin-5-yl-3H-quinazolin-4-one hydrochloride] | 100 to 1000
22 | Cc1cc(OCCCc2ccncc2)cc2c(=O)[nH]c(-c3cc(C(F)(F)F)ccn3)nc12 [Compound 101, 8-Methyl-6-(3-pyridin-4-yl-propoxy)-2-(4-trifluoromethyl-pyridin-2-yl)-3H-quinazolin-4-one hydrochloride] | 100 to 1000
23 | Cc1cc(OCC2CCOC2)cc2c(=O)[nH]c(-c3cc(C(F)(F)F)ccn3)nc12 (centres unmarked) [Compound 102, 8-Methyl-6-(tetrahydro-furan-3-ylmethoxy)-2-(4-trifluoromethyl-pyridin-2-yl)-3H-quinazolin-4-one] | ≤ 100
24 | CCC(=O)N1CC(Oc2cc(C)c3nc(-c4cc(C(F)(F)F)ccn4)[nH]c(=O)c3c2)C1 [Compound 103, 8-Methyl-6-(1-propionyl-azetidin-3-yloxy)-2-(4-trifluoromethyl-pyridin-2-yl)-3H-quinazolin-4-one] | 100 to 1000
25 | Cc1cc(OC2CCN(C3COC3)CC2)cc2c(=O)[nH]c(-c3cc(C(F)(F)F)ccn3)nc12 [Compound 104, 8-Methyl-6-(1-oxetan-3-yl-piperidin-4-yloxy)-2-(4-trifluoromethyl-pyridin-2-yl)-3H-quinazolin-4-one] | 100 to 1000
26 | Cc1cc(N2CCC3(CCOCC3)CC2)cc2c(=O)[nH]c(-c3cc(C(F)(F)F)ccn3)nc12 [Compound 105, 8-Methyl-6-(3-oxa-9-aza-spiro[5.5]undec-9-yl)-2-(4-trifluoromethyl-pyridin-2-yl)-3H-quinazolin-4-one] | ≤ 100
